Experimental data from patent US20250186436A1 (4E Therapeutics, Inc., priority 2021, published 2025).
Values joined by “and” are separate entries in the source; they are usually repeats but may differ in a detail not shown here. Equal entries are not always repeated. Where two headings read alike, the source gives them in different places.

Assays:
[1] = PK study in male Sprague-Dawley rats dosed once per day for five days, PO 25 mg/kg, 0.5% HPMC (Example 8); type: in vivo; conditions: 0.5% HPMC suspension
Description: Example 8. PK study of 4ET-03-053 in male Sprague-Dawley rats dosed once per day for five days (P0; 25 mg/kg; 0.5HPMC aqueous suspension)
(§1) Table 24 provides plasma and brain concentrations at 24 hr after the last dose of five daily PO doses of 4ET-03-053.

[2] = Plasma and brain concentrations, brain to plasma ratio 24 hr after last of five 25 mg/kg PO doses (Example 8); type: in vivo; conditions: rats, 24 hr after the last of five 25 mg/kg PO doses; for concentration at 24 hr / concentration at 24 h: Sprague-Dawley, rat, oral, 25 mg/kg; for concentration at 24 h: male
Source text: as §1

paclitaxel CIPN mice = experiment: Conditioned Place Preference (CPP) test with chemotherapy induced peripheral neuropathy (CIPN) mice; type: in vivo
Description: Mice were treated over a period of 8 days with 4 injections of paclitaxel, made in ethanol and kollipher vehicle, each at 4 mg/kg for a cumulative dose of 16 mg/kg. […] 4ET-03-053 was given with pairing with the white chamber in the CPP box with the idea that pain relief in the white chamber will counteract the natural aversion mice have to areas with bright light.

[3] = system: eIF4E phosphorylation in mouse tissues; experiment: In vivo biochemical assay (Western blot) of eIF4E phosphorylation in mouse tissues; conditions: mice, PO 10 mg/kg
Description: […] Tissues were acutely dissected and immediately frozen. Frozen samples were later bead homogenized with protease and phosphatase inhibitor cocktails present in the homogenization buffer and then protein was quantified by Bradford assay. 20 μg of protein was run per lane on standard SDS-PAGE. Blots were probed with antibodies against p-eIF4E and total-eIF4E and imaged on a BioRad imaging system. […] However, inhibition of phosphorylation of eIF4E in the brain was not observed, as determined by Western blot analysis of brain tissue from the cortex.

[4] = day five of daily PO 25 mg/kg, individual animals, 25 mg/kg
[5] = day five of daily PO 25 mg/kg, mean (n = 3)
[6] = male, Sprague-Dawley, rat, in vivo, po, 25 mg/kg, day five of daily PO 25 mg/kg, individual animals
[7] = male, Sprague-Dawley, rat, in vivo, po, 25 mg/kg, day five of daily PO 25 mg/kg, mean (n = 3)
[8] = male, Sprague-Dawley, rat, in vivo, po, 25 mg/kg, single PO 25 mg/kg dose, individual animals
[9] = male, Sprague-Dawley, rat, in vivo, po, 25 mg/kg, single PO 25 mg/kg dose, mean (n = 3)
[10] = single PO 25 mg/kg dose, individual animals, 25 mg/kg
[11] = single PO 25 mg/kg dose, mean (n = 3)

Structure (SMILES): Cc1cc(Nc2cc(N)ncn2)c(=O)n2c1C(=O)NC21CCC2(CC2)CC1 [4ET-03-053, 6″-((6-Aminopyrimidin-4-yl)amino)-8″-methyl-2″H-dispiro[cyclopropane-1,1′-cyclohexane-4′,3″-imidazo[1,5-a]pyridine]-1″,5″-dione]
- AUClast [1, 4]: 403.575 µg·h/mL and 371.995 µg·h/mL
- Clast [1, 4]: 5340 ng/mL and 6120 ng/mL
- Cmax [1, 4]: 26800 ng/mL and 29900 ng/mL
- Cmax/D [1, 4]: 1184 kg/kL and 1072 kg/kL and 1196 kg/kL
- F [1, 4]: 31.7% and 38.0% and 36.6%
- MRTinf [1, 4]: 13.2 h and 14.8 h
- t1/2 [1, 4]: 10.7 h and 9.67 h
- AUCinf/D [1, 5]: 18250 kg·h/kL
- Cmax/D [1, 5]: 1151 kg/kL
- F [1, 5]: 35.5%
- concentration at 24 h ([1]; male, Sprague-Dawley, rat, in vivo, po, 25 mg/kg, after the last of five daily 25 mg/kg PO doses, at 24 hr, read-out: last measurable concentration): 5890 ng/mL
- Cmax ([1]; male, Sprague-Dawley, rat, in vivo, po, 25 mg/kg, after the last of five daily 25 mg/kg PO doses, read-out: peak plasma concentration (Cmax)): 28800 ng/mL
- half-life ([1]; male, Sprague-Dawley, rat, in vivo, po, 25 mg/kg, after the last of five daily 25 mg/kg PO doses, read-out: terminal half-life (t1/2) (converted)): 10.5 h
- AUC(0-inf) ([1]; male, Sprague-Dawley, rat, in vivo, po, 25 mg/kg, after the last of five daily 25 mg/kg PO doses, read-out: total systemic exposure (AUCinf)): 456 µg·h/mL
- AUC(0-t) [1, 6]: 324 µg·h/mL
- MRT inf [1, 6]: 14.5 h
- Tmax [1, 6]: 1 h
- AUC(0-inf) ([1]; male, Sprague-Dawley, rat, in vivo, po, 25 mg/kg, day five of daily PO 25 mg/kg, individual animals, read-out: AUCinf): 408 µg·h/mL
- concentration at 24 h ([1]; male, Sprague-Dawley, rat, in vivo, po, 25 mg/kg, day five of daily PO 25 mg/kg, individual animals, read-out: Clast): 6220 ng/mL
- Cmax ([1]; male, Sprague-Dawley, rat, in vivo, po, 25 mg/kg, day five of daily PO 25 mg/kg, individual animals, read-out: Cmax): 29600 ng/mL
- half-life ([1]; male, Sprague-Dawley, rat, in vivo, po, 25 mg/kg, day five of daily PO 25 mg/kg, individual animals, read-out: t1/2 (converted)): 11 h
- AUC(0-t) [1, 7]: 367 µg·h/mL
- MRT inf [1, 7]: 14.1 h
- Tmax [1, 7]: 1 h
- AUC(0-inf) ([1]; male, Sprague-Dawley, rat, in vivo, po, 25 mg/kg, day five of daily PO 25 mg/kg, mean (n = 3), read-out: AUCinf): 456 µg·h/mL
- concentration at 24 h ([1]; male, Sprague-Dawley, rat, in vivo, po, 25 mg/kg, day five of daily PO 25 mg/kg, mean (n = 3), read-out: Clast): 5890 ng/mL
- Cmax ([1]; male, Sprague-Dawley, rat, in vivo, po, 25 mg/kg, day five of daily PO 25 mg/kg, mean (n = 3), read-out: Cmax): 28800 ng/mL
- half-life ([1]; male, Sprague-Dawley, rat, in vivo, po, 25 mg/kg, day five of daily PO 25 mg/kg, mean (n = 3), read-out: t1/2 (converted)): 10.5 h
- AUC(0-t) [1, 8]: 288 µg·h/mL
- MRT inf [1, 8]: 9.26 h
- Tmax [1, 8]: 1 h
- AUC(0-inf) ([1]; male, Sprague-Dawley, rat, in vivo, po, 25 mg/kg, single PO 25 mg/kg dose, individual animals, read-out: AUCinf): 315 µg·h/mL
- concentration at 24 h ([1]; male, Sprague-Dawley, rat, in vivo, po, 25 mg/kg, single PO 25 mg/kg dose, individual animals, read-out: Clast): 3130 ng/mL
- Cmax ([1]; male, Sprague-Dawley, rat, in vivo, po, 25 mg/kg, single PO 25 mg/kg dose, individual animals, read-out: Cmax): 24400 ng/mL
- AUC(0-t) [1, 9]: 312 µg·h/mL
- MRT inf [1, 9]: 9.25 h
- Tmax [1, 9]: 1.33 h
- AUC(0-inf) ([1]; male, Sprague-Dawley, rat, in vivo, po, 25 mg/kg, single PO 25 mg/kg dose, mean (n = 3), read-out: AUCinf): 341 µg·h/mL
- Cmax ([1]; male, Sprague-Dawley, rat, in vivo, po, 25 mg/kg, single PO 25 mg/kg dose, mean (n = 3), read-out: Cmax): 25900 ng/mL
- half-life ([1]; male, Sprague-Dawley, rat, in vivo, po, 25 mg/kg, single PO 25 mg/kg dose, mean (n = 3), read-out: t1/2 (converted)): 6.82 h
- Cmax ([1]; male, Sprague-Dawley, rat, in vivo, po, 25 mg/kg, single PO 25 mg/kg, read-out: peak plasma concentration (Cmax)): 25900 ng/mL
- half-life ([1]; male, Sprague-Dawley, rat, in vivo, po, 25 mg/kg, single PO 25 mg/kg, read-out: terminal half-life (t1/2) (converted)): 6.82 h
- AUC(0-inf) ([1]; male, Sprague-Dawley, rat, in vivo, po, 25 mg/kg, single PO 25 mg/kg, read-out: total systemic exposure (AUCinf)): 341 µg·h/mL
- bioavailability ([1]; male, rat, in vivo, after the last of five daily 25 mg/kg PO doses): 35.5%
- AUCinf [1, 10]: 363.793 µg·h/mL and 345.084 µg·h/mL
- AUCinf/D [1, 10]: 12599 kg·h/kL and 14552 kg·h/kL and 13803 kg·h/kL
- AUClast [1, 10]: 336.46 µg·h/mL and 313.078 µg·h/mL
- Clast [1, 10]: 2660 ng/mL and 2870 ng/mL
- Cmax/D [1, 10]: 976 kg/kL and 984 kg/kL and 1152 kg/kL
- F [1, 10]: 24.5% and 28.3% and 26.8%
- MRTinf [1, 10]: 8.89 h and 9.60 h
- t1/2 [1, 10]: 6.94 h and 6.50 h
- AUCinf/D [1, 11]: 13651 kg·h/kL
- Cmax/D [1, 11]: 1037 kg/kL
- concentration at 24 hr ([2]; brain homogenate, brain homogenate, mean, read-out: Tissue Homogenate Conc., Mean): 122 ng/mL
- concentration at 24 hr ([2]; brain, brain, read-out: Mean Tissue): 489 ng/g
- concentration at 24 h ([2]; brain homogenate, brain homogenate, individual animals (n = 3), read-out: Tissue Homogenate Conc.): 104 ng/mL
- concentration at 24 h ([2]; plasma, plasma, individual animals (n = 3), read-out: Plasma Conc.): 5340 ng/mL
- concentration at 24 h ([2]; plasma, plasma, mean, read-out: Plasma Conc., Mean): 5890 ng/mL
- Tissue Homogenate Conc. ([2]; brain homogenate, individual animals (n = 3)): 127 ng/mL and 136 ng/mL
- Plasma Conc. ([2]; plasma, individual animals (n = 3)): 6120 ng/mL and 6220 ng/mL
- CPP: time in white (drug-paired) chamber (paclitaxel CIPN mice; CIPN mice (paclitaxel), 10 mg/kg): spent more time in the white chamber vs. dark chambers
- CPP: effect in mice without CIPN (reward) (paclitaxel CIPN mice; mice that did not have CIPN): no effect
- inhibition of phosphorylation of eIF4E in the brain (cortex) [3]: not observed
- inhibition of eIF4E phosphorylation in DRGs ([3]; 2 hours post dose): significant inhibition
- inhibition of eIF4E phosphorylation in sciatic nerve ([3]; 2 hours post dose): significant inhibition
- inhibition of eIF4E phosphorylation in spleen ([3]; 2 hours post dose): significant inhibition
